The source of these data is patent publication US12522612B2, “PDE4 inhibitors, pharmaceutical compositions, and therapeutic applications” (BioTheryX, Inc., priority 2019, dated 2026).

For one assay, the target named is T1, PDE4B (Homo sapiens, UniProt Q07343).
T1 construct: Whole cell extracts were prepared using an immunoprecipitation (IP) lysis buffer; endogenous in cells; host or cells: A549
The assay can be described thus: Protein degradation assay in A549 cells, western blot, PDE4B. The class given is cell-based. The conditions noted are these: 24 h treatment, read-out: PDE4B degradation relative to DMSO. How it is done: (§1) A549 cells were grown in RPMI 1640 media supplemented with 10% fetal bovine serum, streptomycin, and penicillin. The cells were plated in 6-well plates in the growth media. The next day, fresh growth media were replaced on the cells. The cells were then treated with a compound for 24 h at predetermined concentrations. Whole cell extracts were prepared using an immunoprecipitation (IP) lysis buffer. Briefly, the cells were washed once in PBS, and the cell pellets were resuspended in the IP lysis buffer and incubated for 15 min on ice. Cells debris was removed by centrifugation and the cleared whole cell lysates were transferred to new tubes for further analysis.
(§2) For a western blot analysis, the whole cell protein extracts were separated on 4-12% SDS-polyacrylamide gels, transferred to nitrocellulose, and probed with primary antibodies. Membranes were subsequently washed and probed with IRDYE® secondary antibodies. The signals were detected using an ODYSSEY® Imaging System. The antibodies used in the assay included anti-PDE4B antibody; anti-PDE4D antibodies (top, bottom, and short isoform); β-actin mouse monoclonal antibody; IRDYE® 680RD goat anti-rabbit antibody; and IRDYE® 800CW goat anti-mouse antibody. Compounds B2 to B4, B18, B49 to B52, B76, B77, B79, B81 to B83, B88, B89, and B91 were determined to be able to degradate PDE4B as high as about 50% relative to DMSO.

For the next assay, the system named is TNF-α. Description: Cell-based TNF-α inhibition assay in LPS-induced PBMCs (Meso Scale). The conditions noted are these: PBMC, PBMCs pretreated 1 h, LPS 100 ng/mL 18-24 h, relative to stimulated DMSO control; for inhibition at 1 µM: compound concentration 1 μM; for inhibition at 0.1 µM: compound concentration 0.1 μM. The method in brief: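 Thawed human PBMCs (200,000/well) in RPMI/10% FBS were pretreated with compound or DMSO for 1 h, then stimulated with LPS (100 ng/mL) for 18-24 h. Supernatant TNF-α was measured by Meso Scale; activity expressed as percent of stimulated DMSO control (percent inhibition).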

For a further assay, the system named is PDE4D short isoform. The assay can be described thus: Protein degradation assay in A549 cells, western blot, PDE4D. Type of assay: cell-based. The conditions noted are these: 24 h treatment, same conditions. Here is the method:
as §1, §2

Molecules are shown by their SMILES.

T1 sequence (Q07343 whole entry): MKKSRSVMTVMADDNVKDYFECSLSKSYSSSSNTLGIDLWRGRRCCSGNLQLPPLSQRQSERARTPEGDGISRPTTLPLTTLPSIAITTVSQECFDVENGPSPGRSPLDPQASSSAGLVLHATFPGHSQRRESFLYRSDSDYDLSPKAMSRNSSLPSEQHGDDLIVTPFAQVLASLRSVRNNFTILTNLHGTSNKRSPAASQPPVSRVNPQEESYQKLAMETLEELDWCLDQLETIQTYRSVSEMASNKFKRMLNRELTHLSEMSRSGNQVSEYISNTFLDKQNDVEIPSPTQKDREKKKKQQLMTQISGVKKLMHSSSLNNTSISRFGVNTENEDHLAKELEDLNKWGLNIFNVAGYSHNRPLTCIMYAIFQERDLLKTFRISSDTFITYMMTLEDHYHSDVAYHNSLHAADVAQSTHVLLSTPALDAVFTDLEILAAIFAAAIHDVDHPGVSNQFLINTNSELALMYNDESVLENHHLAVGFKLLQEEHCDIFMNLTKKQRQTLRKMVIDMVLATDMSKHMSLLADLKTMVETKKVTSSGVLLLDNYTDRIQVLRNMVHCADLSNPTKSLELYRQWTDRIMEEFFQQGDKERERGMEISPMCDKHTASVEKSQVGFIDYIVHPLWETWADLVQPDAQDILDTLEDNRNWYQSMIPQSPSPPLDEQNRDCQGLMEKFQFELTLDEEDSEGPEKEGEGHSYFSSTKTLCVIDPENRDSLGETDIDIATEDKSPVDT

A word on the inhibition: it is the relative decrease from the control value, in per cent. For `CCOc1cc([C@@H](CS(C)(=O)=O)N2C(=O)c3cc(CCCCCCCN4CCC(c5cc(F)cc6c5CN(C5CCC(=O)NC5=O)C6=O)CC4)cc(NC(C)=O)c3C2=O)ccc1OC` (stereo partly drawn) [Compound B2, N-(6-(7-(4-(2-(2,6-dioxopiperidin-3-yl)-6-fluoro-1-oxoisoindolin-4-yl)piperidin-1-yl)heptyl)-2-((S)-1-(3-ethoxy-4-methoxyphenyl)-2-(methylsulfonyl)ethyl)-1,3-dioxoisoindolin-4-yl)acetamide], the Dmax on PDE4B was no more than 50%. Moreover, the inhibition at 1 µM in the assay on TNF-α was no less than 60%.
For the compound `O=C1CCC(N2Cc3c(cc(F)cc3C3CCN(CCCCCCCN(C(=O)c4ccc(OC(F)F)c(OCC5CC5)c4)c4c(Cl)cncc4Cl)CC3)C2=O)C(=O)N1` (stereo not shown) [Compound B3, 3-(Cyclopropylmethoxy)-N-(3,5-dichloropyridin-4-yl)-4-(difluoromethoxy)-N-(7-(4-(2-(2,6-dioxopiperidin-3-yl)-6-fluoro-1-oxoisoindolin-4-yl)piperidin-1-yl)heptyl)benzamide], on PDE4B, the Dmax is no more than 50%. In the assay on TNF-α, the inhibition at 0.1 µM was less than 20% and the inhibition at 1 µM is less than 20%.
For `O=C1CCC(N2Cc3c(cc(F)cc3C3CCN(CCCCCCCOc4cc(C(=O)Nc5c(Cl)cncc5Cl)ccc4OC(F)F)CC3)C2=O)C(=O)N1` (stereo not shown) [Compound B4, N-(3,5-dichloropyridin-4-yl)-4-(difluoromethoxy)-3-((7-(4-(2-(2,6-dioxopiperidin-3-yl)-6-fluoro-1-oxoisoindolin-4-yl)piperidin-1-yl)heptyl)oxy)benzamide], at PDE4B, the Dmax was no more than 50%. Moreover, in the assay with TNF-α, the inhibition at 0.1 µM is no less than 60% and the inhibition at 1 µM is no less than 60%.
Turning to `O=C1CCC(N2Cc3c(C#CC4CCN(C(=O)CCCCOc5cc(C(=O)Nc6c(Cl)cncc6Cl)ccc5OC(F)F)CC4)cccc3C2=O)C(=O)N1` (stereo not shown) [Compound B18, N-(3,5-Dichloropyridin-4-yl)-4-(difluoromethoxy)-3-((5-(4-((2-(2,6-dioxopiperidin-3-yl)-1-oxoisoindolin-4-yl)ethynyl)piperidin-1-yl)-5-oxopentyl)oxy)benzamide], the Dmax on PDE4B is no more than 50%. Besides, in the assay with TNF-α, the inhibition at 0.1 µM was no less than 60% and the inhibition at 1 µM was no less than 60%.
As to `COc1ccc(N2Cc3ccccc3C2=O)cc1OCCCCCCCN1CCC(c2cc(F)cc3c2CN(C2CCC(=O)NC2=O)C3=O)CC1` (stereo not shown) [Compound B49, 3-(6-Fluoro-4-(1-(7-(2-methoxy-5-(1-oxoisoindolin-2-yl)phenoxy)heptyl)piperidin-4-yl)-1-oxoisoindolin-2-yl)piperidine-2,6-dione], on PDE4B, the Dmax is no more than 50%. For the same compound, in the assay with TNF-α, the inhibition at 1 µM was less than 20%.
In the same order, the values of `O=C1CCC(N2Cc3c(cc(F)cc3C3CCN(CCCCCCCOc4ccc(N5Cc6ccccc6C5=O)cc4OC4CCCC4)CC3)C2=O)C(=O)N1` (stereo not shown) [Compound B50, 3-(4-(1-(7-(2-(Cyclopentyloxy)-4-(1-oxoisoindolin-2-yl)phenoxy)heptyl)piperidin-4-yl)-6-fluoro-1-oxoisoindolin-2-yl)piperidine-2,6-dione] are no more than 50% and less than 20%.
As for `COc1ccc(N2C(=O)c3ccccc3C2=O)cc1OCCCCCCCN1CCC(c2cc(F)cc3c2CN(C2CCC(=O)NC2=O)C3=O)CC1` (stereo not shown) [Compound B51, 2-(3-((7-(4-(2-(2,6-Dioxopiperidin-3-yl)-6-fluoro-1-oxoisoindolin-4-yl)piperidin-1-yl)heptyl)oxy)-4-methoxyphenyl)isoindoline-1,3-dione], on PDE4B, the Dmax is no more than 50%. The inhibition at 1 µM in the assay with TNF-α lay in the range of 20 to 40%.
In the same order, the values of `COc1ccc(N2C(=O)c3ccc(N)cc3C2=O)cc1OCCCCCCCN1CCC(c2cc(F)cc3c2CN(C2CCC(=O)NC2=O)C3=O)CC1` (stereo not shown) [Compound B52, 5-Amino-2-(3-((7-(4-(2-(2,6-dioxopiperidin-3-yl)-6-fluoro-1-oxoisoindolin-4-yl)piperidin-1-yl)heptyl)oxy)-4-methoxyphenyl)isoindoline-1,3-dione] are no more than 50% and less than 20%.
Regarding `Cc1ncsc1-c1ccc(CNC(=O)[C@@H]2C[C@@H](O)CN2C(=O)[C@@H](NC(=O)CCCCCCCCCCOc2cc(C(=O)Nc3c(Cl)cncc3Cl)ccc2OC(F)F)C(C)(C)C)cc1` [Compound B76, (2S,4R)-1-((S)-2-(11-(5-((3,5-Dichloropyridin-4-yl)carbamoyl)-2-(difluoromethoxy)phenoxy)undecanamido)-3,3-dimethylbutanoyl)-4-hydroxy-N-(4-(4-methylthiazol-5-yl)benzyl)pyrrolidine-2-carboxamide], the Dmax on PDE4B was no more than 50%. Moreover, in the assay on TNF-α, the inhibition at 0.1 µM is no less than 60% and the inhibition at 1 µM was no less than 60%.
On to `CCOc1cc([C@@H](CS(C)(=O)=O)N2C(=O)c3cccc(NC(=O)CCCCCCCCN4CCC(c5cc(F)cc6c5CN(C5CCC(=O)NC5=O)C6=O)CC4)c3C2=O)ccc1OC` (stereo partly drawn) [Compound B77, 9-(4-(2-(2,6-Dioxopiperidin-3-yl)-6-fluoro-1-oxoisoindolin-4-yl)piperidin-1-yl)-N-(2-((S)-1-(3-ethoxy-4-methoxyphenyl)-2-(methylsulfonyl)ethyl)-1,3-dioxoisoindolin-4-yl)nonanamide], for which the Dmax at PDE4B is no more than 50%. In the assay with TNF-α, the inhibition at 0.1 µM was 40 to 60% and the inhibition at 1 µM was no less than 60%.
Taken in the same sequence, the figures for `CCOc1cc([C@@H](CS(C)(=O)=O)N2C(=O)c3cc(CCCCCCCCCCCCN4CCC(c5cc(F)cc6c5CN(C5CCC(=O)NC5=O)C6=O)CC4)cc(NC(C)=O)c3C2=O)ccc1OC` (stereo partly drawn) [Compound B79, N-(6-(12-(4-(2-(2,6-Dioxopiperidin-3-yl)-6-fluoro-1-oxoisoindolin-4-yl)piperidin-1-yl)dodecyl)-2-((S)-1-(3-ethoxy-4-methoxyphenyl)-2-(methylsulfonyl)ethyl)-1,3-dioxoisoindolin-4-yl)acetamide] were no more than 50%, no less than 60% and no less than 60%.
In the case of `O=C1CCC(N2Cc3c(cc(F)cc3C3CCN(CCCOc4cc(C(=O)Nc5c(Cl)cncc5Cl)ccc4OC(F)F)CC3)C2=O)C(=O)N1` (stereo not shown) [Compound B83, N-(3,5-Dichloropyridin-4-yl)-4-(difluoromethoxy)-3-(3-(4-(2-(2,6-dioxopiperidin-3-yl)-6-fluoro-1-oxoisoindolin-4-yl)piperidin-1-yl)propoxy)benzamide], on PDE4B, the Dmax was no more than 50%. Also, the inhibition at 1 µM in the assay with TNF-α is 20 to 40%.
On to `CCOc1cc([C@@H](CS(C)(=O)=O)N2C(=O)c3cccc(NC(C)=O)c3C2=O)ccc1OC` [apremilast], for which the “PDE4D degradation (result in words)” value in the assay on PDE4D short isoform is on record as “did not degradate the PDE4D”.
